Assay results as given in PMC5735191, “Computational and biological profile of boronic acids for the detection of bacterial serine- and metallo-β-lactamases” (Scientific Reports, 2017).
Several values for one entry are separate records, joined by “and”; a condition that tells them apart may be missing. Equal values may be shown once.

Tests used:
[1] = target: T1, AmpC β-lactamase (Pseudomonas aeruginosa, UniProt P24735); experiment: Enzyme inhibition assay (spectrophotometric, cephalothin reporter substrate); assay type: biochemical, P. aeruginosa; settings: mean of two replicates, five inhibitor concentrations, Dixon plot, 100 μM cephalothin, pH 7.5, 25 °C
T1 construct: made in house; host or cells: E. coli BL21(DE3), plasmid pET-9aAmpC
Description: (§1) To obtain a well-characterized inhibition profile for each selected boronic acids against each BLs in the panel, the compounds were tested for inhibitory activity. The protein panel included clinically- and epidemiologically-relevant β-lactamases, representatives of each structural class (A to D), as mentioned above. Each BL was overexpressed in E. coli, purified by chromatography and characterized as already reported. (SI, Table S1)[40]–[45].
(§2) Reactions were initiated with addition of BL enzyme (the concentration values for each BL enzyme into the SI, Table S1 have been reported).
(§3) From the resulting inhibition percentages at each different inhibitor concentration and, assuming a competitive inhibition for the boronic compounds panel, it was possible to calculate the IC50 values from the Dixon plot 1/V vs [I], using the equation IC50 = […][61], where v0 is the rate of hydrolysis of the reporter substrate (v0 being the rate measured in the absence of inhibitor), q the y axis intercept and m the slope of the resulting linear regression.

[2] = target: T2, CTX-M-15 (Escherichia coli, UniProt Q9EXV5); experiment: as above; assay type: biochemical; settings: IC50 CTX-M-15, mean of two replicates, five inhibitor concentrations, Dixon plot; pH 7.5, 25 °C
T2 construct: made in house; host or cells: E. coli BL21(DE3), pET-9a derivative (pET-CTX-M-15)
Description: as §1, §2, §3

[3] = target: T3, OXA-24 (Acinetobacter baumannii, UniProt Q8RLA6); experiment: as above; assay type: biochemical
T3 construct: GST (N, cleaved yes); made in house; host or cells: E. coli DH5α, pGEX-2T-OXA-24
Description: as §1, §2, §3

[4] = target: T4, KPC-2 (Klebsiella pneumoniae, UniProt Q9F663); experiment: as above; assay type: biochemical; settings: mean of two replicates, five inhibitor concentrations, Dixon plot; pH 7.5, 25 °C
T4 construct: made in house; host or cells: E. coli BL21(DE3), pET9-KPC2
Description: as §1, §2

[5] = tested on: E. aerogenes clinical isolate, overproduction chromosomal AmpC; experiment: Susceptibility testing (MIC), synergy with ceftazidime; assay type: cell-based; settings: antibiotic:inhibitor 1:1 (w/w)
Description: (§4) The minimum inhibitory concentrations (MICs), for CAZ and CTX alone and in combination with boronic acids against resistant strains were determined (Table 2a,b).
(§5) Susceptibility testing was performed in Mueller Hinton broth and interpreted following the guidelines of the National Committee for Clinical Laboratory Standards[70]. To test the inhibitory activity, the compounds were dissolved in DMSO, 50% in water, and further dilutions were performed using growth medium. In all cases tests were performed at a final DMSO concentration below 5%, avoiding unwanted DMSO inhibition effect on strains growth (blank test control with DMSO were performed). The MICs of cefotaxime and ceftazidime alone and in association were determined against several relevant Gram-negative clinical isolates, selected from the pathogen collection of the Spanish Network for Research in Infectious Pathology (REIPI; Spain). The selection was based on strains capability of producing β-lactamases of interest for the present study. The antibiotic:inhibitor ratio was 1:1 (w/w).

[6] = tested on: E. cloacae clinical isolate, overproduction chromosomal AmpC; experiment: as above; assay type: cell-based; settings: for MIC of ceftazidime (CAZ) in combination with compound: overproduction chromosomal AmpC, antibiotic:inhibitor 1:1 (w/w)
Description: as §4, §5

[7] = tested on: E. coli clinical isolate, overproduction chromosomal AmpC; experiment: as above; assay type: cell-based; settings: antibiotic:inhibitor 1:1 (w/w)
Description: as §4, §5

[8] = tested on: E. coli clinical isolate, plasmidic AmpC - DHA1; experiment: as above; assay type: cell-based; settings: for MIC of ceftazidime (CAZ) in combination with compound: E. coli, plasmidic AmpC - DHA1, antibiotic:inhibitor 1:1 (w/w)
Description: as §4, §5

[9] = tested on: P. aeruginosa 12, overproduction chromosomal AmpC; experiment: as above; assay type: cell-based; settings: antibiotic:inhibitor 1:1 (w/w)
Description: as §4, §5

[10] = tested on: P. aeruginosa 120, overproduction chromosomal AmpC; experiment: as above; assay type: cell-based; settings: antibiotic:inhibitor 1:1 (w/w)
Description: as §4, §5

[11] = tested on: P. aeruginosa 148, overproduction chromosomal AmpC; experiment: as above; assay type: cell-based; settings: antibiotic:inhibitor 1:1 (w/w)
Description: as §4, §5

[12] = tested on: P. aeruginosa 199, overproduction chromosomal AmpC; experiment: as above; assay type: cell-based; settings: antibiotic:inhibitor 1:1 (w/w)
Description: as §4, §5

[13] = tested on: P. aeruginosa 49, overproduction chromosomal AmpC; experiment: as above; assay type: cell-based; settings: antibiotic:inhibitor 1:1 (w/w)
Description: as §4, §5

[14] = tested on: CTX-M-15 E. coli clinical isolate; experiment: Susceptibility testing (MIC), synergy with cefotaxime; assay type: cell-based; settings: CTX-M-15 E. coli; antibiotic:inhibitor 1:1 (w/w)
Description: as §4, §5

[15] = tested on: KPC-2 K. pneumoniae clinical isolate; experiment: as above; assay type: cell-based; settings: for MIC of cefotaxime (CTX) in combination with compound: KPC-2 K. pneumoniae, antibiotic:inhibitor 1:1 (w/w)
Description: as §4, §5

[16] = tested on: NDM-1 E. coli clinical isolate; experiment: as above; assay type: cell-based; settings: antibiotic:inhibitor 1:1 (w/w)
Description: as §4, §5

[17] = tested on: OXA-24 A. baumanii clinical isolate; experiment: as above; assay type: cell-based; settings: antibiotic:inhibitor 1:1 (w/w)
Description: as §4, §5

[18] = tested on: VIM-2 P. aeruginosa clinical isolate; experiment: as above; assay type: cell-based; settings: antibiotic:inhibitor 1:1 (w/w)
Description: as §4, §5

[19] = target: VIM-2 (Escherichia coli, UniProt Q5U7L7); experiment: Enzyme inhibition assay (spectrophotometric, cephalothin reporter substrate); assay type: biochemical; parameters: made in house; host or cells: E. coli BL21(DE3), pET9-VIM-2; settings: mean of two replicates, five inhibitor concentrations, Dixon plot; pH 7.5, 25 °C
Description: as §1, §2

[20] = target: NDM-1 (Klebsiella pneumoniae, UniProt C7C422); experiment: as above; assay type: biochemical; parameters: His-tag; made in house; host or cells: E. coli BL21(DE3), pET-15-NDM-1; settings: mean of two replicates, five inhibitor concentrations, Dixon plot; pH 7.5, 25 °C
Description: as §1, §2

[21] = tested on: CC(=O)OCC1=C(C(=O)O)N2C(=O)[C@@H](NC(=O)Cc3cccs3)[C@H]2SC1; experiment: purified protein, by the assay type; settings: 37.0 °C
[22] = other: β-lactam substrate of AmpC, enzyme 0.019 µM
[23] = other: β-lactam substrate of CTX-M-15, enzyme 0.067 µM
[24] = other: β-lactam substrate of OXA-24, enzyme 0.035 µM

Chain of NDM-1 (C7C422 29-270 limits assumed): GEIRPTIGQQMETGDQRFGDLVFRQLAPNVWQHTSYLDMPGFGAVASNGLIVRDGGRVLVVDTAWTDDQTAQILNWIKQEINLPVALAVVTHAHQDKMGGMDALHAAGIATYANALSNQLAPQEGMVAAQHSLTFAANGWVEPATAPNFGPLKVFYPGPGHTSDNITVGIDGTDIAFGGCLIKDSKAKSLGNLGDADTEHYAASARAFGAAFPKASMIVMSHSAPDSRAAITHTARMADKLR
T1 sequence (P24735 27-397): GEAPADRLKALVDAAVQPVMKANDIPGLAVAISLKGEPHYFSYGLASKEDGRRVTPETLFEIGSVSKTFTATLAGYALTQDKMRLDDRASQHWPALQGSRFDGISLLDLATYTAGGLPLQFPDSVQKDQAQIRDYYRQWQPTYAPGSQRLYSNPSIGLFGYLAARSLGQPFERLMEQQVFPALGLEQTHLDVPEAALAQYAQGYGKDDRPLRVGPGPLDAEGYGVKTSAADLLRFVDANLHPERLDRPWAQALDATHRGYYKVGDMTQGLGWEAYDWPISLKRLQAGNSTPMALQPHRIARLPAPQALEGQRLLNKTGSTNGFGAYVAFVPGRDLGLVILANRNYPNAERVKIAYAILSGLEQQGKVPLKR
T4 sequence (Q9F663 25-293 limits assumed): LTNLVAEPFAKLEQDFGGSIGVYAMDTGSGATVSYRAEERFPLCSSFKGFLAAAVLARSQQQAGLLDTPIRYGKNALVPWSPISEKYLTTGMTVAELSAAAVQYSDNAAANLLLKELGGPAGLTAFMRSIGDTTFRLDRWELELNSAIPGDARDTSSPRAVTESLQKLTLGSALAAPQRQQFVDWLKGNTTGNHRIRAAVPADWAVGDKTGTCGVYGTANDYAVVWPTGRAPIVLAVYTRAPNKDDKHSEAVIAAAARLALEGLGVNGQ
T3 sequence (Q8RLA6 22-275 limits assumed): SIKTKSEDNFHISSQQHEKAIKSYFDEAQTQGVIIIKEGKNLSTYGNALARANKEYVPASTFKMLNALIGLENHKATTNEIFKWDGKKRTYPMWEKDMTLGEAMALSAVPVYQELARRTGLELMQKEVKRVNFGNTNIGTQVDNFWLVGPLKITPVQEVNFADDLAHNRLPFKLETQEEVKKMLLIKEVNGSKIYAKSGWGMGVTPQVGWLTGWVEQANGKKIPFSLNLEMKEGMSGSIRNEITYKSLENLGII
T2 sequence (Q9EXV5 entry or part of it): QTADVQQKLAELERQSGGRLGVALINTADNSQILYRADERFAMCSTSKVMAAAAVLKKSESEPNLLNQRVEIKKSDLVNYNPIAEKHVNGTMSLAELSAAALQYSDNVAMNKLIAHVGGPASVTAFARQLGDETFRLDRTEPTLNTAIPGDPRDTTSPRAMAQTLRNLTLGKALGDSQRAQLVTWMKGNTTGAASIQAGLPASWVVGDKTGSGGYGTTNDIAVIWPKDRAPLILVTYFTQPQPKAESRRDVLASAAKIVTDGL

Molecule	IC50 [1]	IC50 [2]	IC50 [3]	IC50 [4]	MIC of ceftazidime (CAZ) in combination with compound [6]	MIC of ceftazidime (CAZ) in combination with compound [7]	MIC of ceftazidime (CAZ) in combination with compound [8]	MIC of ceftazidime (CAZ) in combination with compound [9]	MIC of ceftazidime (CAZ) in combination with compound [10]	MIC of ceftazidime (CAZ) in combination with compound [11]	MIC of ceftazidime (CAZ) in combination with compound [12]	MIC of ceftazidime (CAZ) in combination with compound [13]	MIC of cefotaxime (CTX) in combination with compound [14]	MIC of cefotaxime (CTX) in combination with compound [15]	MIC of cefotaxime (CTX) in combination with compound [16]	MIC of cefotaxime (CTX) in combination with compound [17]	MIC of cefotaxime (CTX) in combination with compound [18]	IC50 [19]	IC50 [20]	other results
Cc1ccc2sc(B3OC(C)(C)C(C)(C)O3)cc2c1 [Compound 1]	0.4 ± 0.08 µM	6.4 ± 1.52 µM	113 ± 14.6 µM	5.9 ± 1.64 µM	64 µg/mL	16 µg/mL	64 µg/mL	4 µg/mL	4 µg/mL	8 µg/mL	16 µg/mL	4 µg/mL	64 µg/mL	4 µg/mL	1024 µg/mL	64 µg/mL	1024 µg/mL	72 ± 14.7 µM	68.4 ± 14 µM	MIC of ceftazidime (CAZ) in combination with compound [5]: 4 µg/mL; MIC decrease of CAZ (fold) / synergy ([6]; CAZ combination): 4 fold; MIC reduction of CAZ (fold) ([8]; DHA-1-producing E. coli strain, CAZ combination): 8 fold; MIC reduction of CTX (fold) ([15]; K. pneumoniae producing KPC-2, CTX combination): 32 fold
CC1(C)OB(c2cc3cc(CBr)ccc3s2)OC1(C)C [Compound 2]	0.2 ± 0.04 µM	8.3 ± 1.09 µM	93 ± 18.4 µM	4.7 ± 2.04 µM	–	16 µg/mL	32 µg/mL	4 µg/mL	2 µg/mL	8 µg/mL	16 µg/mL	4 µg/mL	64 µg/mL	4 µg/mL	1024 µg/mL	64 µg/mL	–	83.5 ± 3.35 µM	64.6 ± 7.88 µM	MIC of ceftazidime (CAZ) in combination with compound [5]: 4 µg/mL
NCc1ccc2sc(B(O)O)cc2c1 [Compound 3]	0.16 ± 0.06 µM	5.2 ± 1.42 µM	132 ± 20.9 µM	7.3 ± 1.82 µM	64 µg/mL	16 µg/mL	512 µg/mL	64 µg/mL	4 µg/mL	4 µg/mL	64 µg/mL	64 µg/mL	64 µg/mL	4 µg/mL	32 µg/mL	64 µg/mL	8 µg/mL	26.9 ± 7.07 µM	60.7 ± 11.8 µM	–
CC(C)(C)OC(=O)c1cccc2cc(B3OC(C)(C)C(C)(C)O3)sc12 [Compound 4]	3.88 µM and 3.9 µM	4.49 µM and 4.5 µM	38 ± 7.64 µM	8.22 µM and 5.4 µM	–	512 µg/mL	512 µg/mL	32 µg/mL	4 µg/mL	32 µg/mL	64 µg/mL	64 µg/mL	64 µg/mL	4 µg/mL	1024 µg/mL	64 µg/mL	1024 µg/mL	20.2 ± 0.07 µM	35.7 ± 7.46 µM	–
CC(C)(C)OC(=O)Nc1cccc2cc(B(O)O)sc12 [Compound 6]	4.4 ± 0.83 µM	9.8 ± 3.34 µM	88 ± 14 µM	2.25 µM and 2.3 µM	64 µg/mL	64 µg/mL	512 µg/mL	64 µg/mL	4 µg/mL	64 µg/mL	64 µg/mL	64 µg/mL	16 µg/mL	4 µg/mL	64 µg/mL	16 µg/mL	–	103 ± 14.2 µM	117 ± 9.72 µM	–
AmpC (Pseudomonas aeruginosa PAO1)	–	–	–	–	–	–	–	–	–	–	–	–	–	–	–	–	–	–	–	Km [21, 22]: 33 ± 2 µM; kcat [21, 22]: 159 ± 32 s⁻¹; kcat/Km [21, 22]: 4.82e+06 M⁻¹ s⁻¹
CTX-M-15 (Escherichia coli)	–	–	–	–	–	–	–	–	–	–	–	–	–	–	–	–	–	–	–	Km [21, 23]: 41 ± 3 µM; kcat [21, 23]: 35 ± 7 s⁻¹; kcat/Km [21, 23]: 850000 M⁻¹ s⁻¹
OXA-24 (Acinetobacter baumannii)	–	–	–	–	–	–	–	–	–	–	–	–	–	–	–	–	–	–	–	Km [21, 24]: 20 ± 2 µM; kcat [21, 24]: 1000 ± 150 s⁻¹; kcat/Km [21, 24]: 5e+07 M⁻¹ s⁻¹
